Data reported in a melting point compilation (Tetko et al.; mined from patent text by program, amines drawn as free bases though some values may be those of a salt).

For CN1CCC(CC(=O)N2c3ccccc3NC(=O)c3ccccc32)CC1, the melting point was greater than 95 °C.
Compound NC(=O)C(=O)c1ccccc1CCl has a melting point of 105 to 107 °C.
Work on COc1cccc2c1OC(CO)CN2C(=O)OC(C)(C)C (configuration not stated) yielded a melting point of 65 to 68 °C.
With CC(C)OCCCNC(=O)c1n[nH]cc1NC(=O)c1ccccn1 the melting point was 152 to 153 °C.
Compound CCC(Cc1cccc(NC(C)=O)c1)C(=O)O (configuration not stated) has a melting point of 131 to 132 °C.
CCOc1ccccc1C(=O)Nc1ccc(C(=O)N2CCC(F)(F)/C(=C\C(=O)N(C)C)c3ccccc32)cc1 gave a melting point of 195 to 198 °C.
In the case of CCOC(=O)CNC(=O)N(O)C1CC(c2ccc(F)cc2)C1 (configuration not stated), the melting point is reported as 130 to 132 °C.
CC(CCNC(=O)c1ccc(Cl)nc1)n1ccnc1 (configuration not stated) gave a melting point of 137 to 139 °C.
Compound COc1cc(C(=O)NS(=O)(=O)c2ccccc2C)ccc1Cn1cc(/C=C/C(=O)N(C)C)c2ccc(/C=C/C(=O)N(C)C)cc21 has a melting point of 271 to 273 °C.
For Cc1ccc2c(c1)C=Cc1cc(C)ccc1C2c1cn(-c2ccnc(NC(Cc3c[nH]cn3)C(=O)O)n2)c(=O)[nH]c1=O (configuration not stated), the melting point was 223 °C.
For Cc1ccsc1C(=O)c1cc(CN(C)C)c(O)c(C(C)(C)C)c1, the melting point was 149 to 150 °C.
Compound CC(C)CC(=O)Oc1ccc2cc(C(=N)N)ccc2c1 has a melting point of 250 to 252 °C.
Work on NC(=O)CNC(=O)c1ccnc(-c2cccc3cc(COc4cccc(C(F)(F)F)c4)sc23)c1 yielded a melting point of 185 to 186 °C.
O=CN(O)C(CC1CCS(=O)(=O)CC1)CS(=O)(=O)c1ccc(Oc2ccc(OC(F)(F)F)cc2)cc1 (configuration not stated) showed a melting point of 143 to 144 °C.
Compound CCOC(=O)C1C(=O)NC(=O)C(CCN(C)C)(c2cccc(OC)c2)C1CC (configuration not stated) has a melting point of 160 to 162 °C.
Compound COc1cc(Nc2c(C#N)cnc3cc(-c4ccccc4)sc23)c(Cl)cc1Cl has a melting point of 274 to 276 °C.
CC(C)C[C@H](NC(=O)NCc1ccccc1)C(=O)N[C@@H](Cc1ccccc1)C(=O)CSCc1ccco1 showed a melting point of 95 to 97 °C.
CC(C)C(C)C=CC(C)C1CCC2C1(C)CCC1C23C=CC2(CC(O)CCC12C)OO3 (configuration not stated) showed a melting point of 165 to 169 °C.
In the case of FC(F)(F)c1cc(I)cc(OCc2ccc3ccccc3c2)c1, the melting point is reported as 65 to 66 °C.
CN1CC(CNC(=S)NC(=O)c2ccccc2)CC2c3cccc4[nH]cc(c34)CC21 (configuration not stated) showed a melting point of 153 to 155 °C.
COc1ccc(C(=O)Nc2ccc(C(C)(C)CNC(C)=O)c(-c3cccnc3)c2)cc1OC showed a melting point of 234 to 237 °C.
For CC(=O)Nc1ccccc1C(=O)Nc1ccc(N2CCN3CCC2CC3)cc1, the melting point was 191 °C.
COc1ccc(-c2cc(=O)n(CC3CCCC3)nc2-c2ccc(OC)cc2)cc1 gave a melting point of 130 to 131 °C.
Work on CC(=O)SCCC(=O)NC(Cc1cn(C=O)c2ccccc12)C(=O)O (racemic) yielded a melting point of 130 to 133 °C.
In the case of Cn1nnc(-c2ccc3c(c2)c(C2=CCN(CCN4CCNC4=O)CC2)cn3-c2ccc(F)cc2)n1, the melting point is reported as 201 to 203 °C.
With CCCC(=O)c1cn(C)cc(-c2cccc(C(F)(F)F)c2)c1=O the melting point was 93 to 94 °C.
Work on OCCCc1conc1-c1ccc(F)c(Br)c1 yielded a melting point of 40 to 41 °C.
CC(C)OC(=O)C1CCCN1S(=O)(=O)c1ccc(N2CCC(NCC(O)c3ccc(O)c(NS(C)(=O)=O)c3)CC2)cc1 (configuration not stated) showed a melting point of 52 to 58 °C.
Compound CCC(Oc1cccc(C(F)(F)F)c1)C(=O)OC1CC(O)C=C2C=CC(C)C(CCC3CC(O)CC(=O)O3)C21 (mixture of isomers) has a melting point of 135 to 137 °C.
O=C(CC1CCCC1)Nc1c(C(O)(C(F)(F)F)C(F)(F)F)ccc2ccccc12 showed a melting point of 144 to 145 °C.
Work on C[C@@H]1[C@H]2C(=O)N(Cc3ccccc3)C(=O)[C@H]2[C@@H](c2ccc(Br)cc2)N1C (racemic) yielded a melting point of 166 to 168 °C.
With COC(=O)C=CC=CCS(=O)(=O)c1ccccc1 the melting point was 105 °C.
CCOCc1nc2c(N)nc(C)c(C)c2n1NC(C)C showed a melting point of 110 to 120 °C.
For O=C(CCCN1CCC(c2ccc(Cl)cc2)CC1)c1ccc(CN2CCCC2)cc1, the melting point was 63 to 65 °C.
Work on O=C1NC(=O)C(Cc2ccc(CCNCC(O)COc3ccc(OCc4ccccc4)cc3)cc2)S1 (configuration not stated) yielded a melting point of 51 to 53 °C.
In the case of CC1Cc2c(N3CCCC3CO)c(F)cc3c(=O)c(C(=O)O)cn1c23 (configuration not stated), the melting point is reported as 235 to 237 °C.
Cn1c(-c2cnn(-c3c(Cl)cc(C(F)(F)F)cc3Cl)n2)nc(C#N)c1C#N gave a melting point of 154 to 156 °C.
For COC(=O)c1sc2c(c1C)c1ccccc1n2Cc1ccccc1, the melting point was 132 to 134 °C.
For CCOC(=O)c1sc(SC)c2c1CCC(Br)C2=O (configuration not stated), the melting point was 147 to 148 °C.
In the case of COc1cc(C(=O)C(C#N)C#N)cc(OC)c1OC, the melting point is reported as 158 to 160 °C.
NS(=O)(=O)c1cccc(NC(=O)c2cnn3c(C(F)(F)F)cc(-c4ccc(OC(F)(F)F)cc4)nc23)c1 showed a melting point of 257 °C.
CCOC(=O)c1c[nH]nc1NCc1ccccc1 gave a melting point of 99 to 100 °C.
Work on CCCc1c(OCCCCCOc2ccc(C(=O)c3cccc(C(=O)O)c3)cc2CCC(=O)O)ccc2c1OCCC2=O yielded a melting point of 122 to 128 °C.
In the case of CC(C)[C@H](NC(=O)CN)c1nc2c(C(F)(F)F)cccc2c(O)c1C(=O)Nc1nccs1, the melting point is reported as 230 °C.
COC(=O)Nc1cc(-c2nccs2)[nH]c1C(CC1CCOCC1)c1ccc(S(=O)(=O)C2CC2)cc1 (configuration not stated) showed a melting point of 120 to 122 °C.
Work on Clc1cccc(-c2nnc3c4ccc(Cl)cc4c(-c4ccccc4)nn23)c1 yielded a melting point of 227 to 230 °C.
Compound c1ccc(C2CCN=C(c3csnn3)N2)cc1 (configuration not stated) has a melting point of 158 °C.
Compound COc1ccccc1C(=O)NS(=O)(=O)c1ccc(NC(=O)C2CCCC2)cc1 has a melting point of 202 to 206 °C.
For CNC(=N[N+](=O)[O-])N(Cc1ccc(Cl)nc1)C(C)=O, the melting point was 124 to 125 °C.
Work on CC(C)(C)OC(=O)N1C2CCC1CNC2 yielded a melting point of 102 to 104 °C.
CC(=Cc1cc(Cl)ccc1O)[N+](=O)[O-] showed a melting point of 104 to 106 °C.
Work on O=C(Nc1ccncn1)c1ccccc1SSc1ccccc1C(=O)Nc1ccncn1 yielded a melting point of 234 to 235 °C.
For Cc1c2c(cn1CC(N)=O)CN=C(c1ccccc1Cl)c1cc(Cl)ccc1-2, the melting point was 142 to 145 °C.
With CCCCNS(=O)(=O)CC(O)C(O)C(CC1CCCCC1)NC(=O)c1cccnc1 (configuration not stated) the melting point was 61 to 64 °C.
Compound Nc1nc(N)nc(Cc2cc3ccccc3s2)n1 has a melting point of 216 to 218 °C.
Compound CC(C)(C)C(=O)c1c[nH]c2ncc(-c3cccc(N4CC5(COC5)C4)c3)nc12 has a melting point of 260 to 262 °C.
In the case of CNC(=O)N1CC(C)(C)NC(C)(C)CC1=O, the melting point is reported as 147 to 149 °C.
CCOP(=O)(CC(=O)Nc1c(C(C)C)cccc1C(C)C)c1ccccc1 (configuration not stated) gave a melting point of 170 to 173 °C.
Cn1ccnc1Sc1ccc(Nc2c(C#N)cnc3cc(/C=C/CCN4CCCC4)ccc23)cc1Cl gave a melting point of 185 to 191 °C.
With CCCCc1oc2ccccc2c1C(=O)NCc1ccc2c(-c3ccc(C)cc3)c(OCC#N)ccc2c1 the melting point was 114 to 117 °C.
In the case of CC(=O)Oc1ccc(C=Cc2cc(OC(C)=O)cc(OC(C)=O)c2)cc1, the melting point is reported as 112 to 113 °C.
Work on CCOC(=O)C(C(=O)OCC)c1cc(=O)n(-c2ccccc2)c2ccccc12 yielded a melting point of 101 to 103 °C.
Compound COc1ccc(C(=O)c2cccc3c2CCC3C#N)cc1 (configuration not stated) has a melting point of 109 to 112 °C.
In the case of CC(CO)NC(=O)CCCCC1CCSS1 (configuration not stated), the melting point is reported as 52 to 56 °C.
For OC1CSC(Oc2cccc(-c3ccccn3)c2)C(O)C1O (configuration not stated), the melting point was 138 to 139 °C.
Compound O=c1c2ccccc2cc2sccn12 has a melting point of 135 to 136 °C.
With CCCC(=O)Oc1cc2c(s1)CCN(C(C(=O)C1CC1)c1ccccc1F)C2 (configuration not stated) the melting point was 84 to 85 °C.
For CCCc1nc(C)cc(=O)n1CCOc1ccc(C=C2SC(=O)NC2=O)cc1, the melting point was 240 to 242 °C.
CCn1c(Nc2ccc(C)cc2)nnc1[C@@H](C)NS(=O)(=O)c1ccc(Cl)c(Cl)c1 showed a melting point of 93 to 99 °C.
With COc1cc2c(cc1OCCN(C)C)N(C(=O)c1ccc(-c3ccc(-c4noc(C)n4)cc3C)cc1)CC2 the melting point was 140 to 141 °C.
Compound COc1cc(C(=O)N(CCCC(=O)O)c2cccc3ccccc23)cc(OC)c1OC has a melting point of 143 to 145 °C.
Oc1nc2ncnn2c(O)c1-c1c(F)cc(F)cc1F gave a melting point of 200 to 201 °C.
In the case of N#CCCCCn1nc(C(N)=O)c2ccccc21, the melting point is reported as 182 to 185 °C.
In the case of O=C1CCc2cc(C3=NNC(=O)C4CCC34)ccc2N1 (configuration not stated), the melting point is reported as 349 to 353 °C.
With CNC(=O)c1cc(C#N)cc(Cl)c1NC(=O)c1cc(Cl)nn1-c1ncccc1Cl the melting point was 197 to 200 °C.
Cc1ccc(C2=CC(O)CN(C)C2)cc1 (configuration not stated) gave a melting point of 67 to 69 °C.
Cc1nc2cc(Br)ccc2s1 showed a melting point of 84 to 85 °C.
In the case of CN=C(Cc1ccccc1)N1CC2C(=O)CCC(c3ccccc3)(c3ccccc3)C2C1 (configuration not stated), the melting point is reported as 110 °C.
For FC(F)(F)c1ccc2c(c1)Sc1ccccc1NC2=S, the melting point was 236 to 239 °C.
For Nc1c(C(=O)O)c(=O)[nH]c2cc(Cl)ccc12, the melting point was greater than 330 °C.
Compound CC1(Cc2cccc(N)c2)Cc2ccccc2C1=O (configuration not stated) has a melting point of 95 to 98 °C.
Work on O=C(O)c1cc(Cl)c(Cl)c(Cl)n1 yielded a melting point of 115 to 120 °C.
O=c1c2c(Cc3ccc(C(F)(F)F)cc3)n[nH]c2c2cccnc2n1-c1cccc(OC(F)(F)F)c1 showed a melting point of 227 to 231 °C.
In the case of CCC1(C)SC(=NOC(=O)N(C)C(C)=O)N=C1C (configuration not stated), the melting point is reported as 98 to 101 °C.
For Nc1cccc2c1S(=O)(=O)CC2, the melting point was 117 to 119 °C.
CC1(C)Oc2ccc(C#N)cc2C(Oc2ccc(O)nn2)C1O (configuration not stated) gave a melting point of 232 to 233 °C.
In the case of O=c1[nH]c2cc(F)c(F)cc2cc1P(=O)(O)O, the melting point is reported as 245 to 252 °C.
For CCc1ccccc1-n1ncc(C#N)c1N, the melting point was 130 °C.
Compound CCOC(=O)c1cn(C(C)CCl)c2c(F)c(F)c(F)cc2c1=O (configuration not stated) has a melting point of 190 to 191 °C.
For CCCc1c2nc(C(=O)OC)cc(N(C)S(=O)(=O)c3ccc(C)cc3)c2cc2c(=O)cc(C(=O)OCC)oc12, the melting point was 173 to 174 °C.
Compound CCCCCCCCCCCCCCCC(=O)OCC(O)COC(=O)CCCCCCCCCCCCCCC has a melting point of 71 to 73 °C.
For O=C(CN1CCN(C(c2ccccc2)c2ccccc2)CC1)c1ccc(OCc2ccccc2)cc1, the melting point was 151 °C.
For CCOCCOc1ccc(-c2nc(-c3ccc(OC)cc3)nc(-c3ccc(OCCOCC)cc3O)n2)c(O)c1, the melting point was 155 to 158 °C.
Cc1ccc(C(=O)CCl)cc1S(N)(=O)=O gave a melting point of 166 °C.
With CC(CSC(=O)c1ccccc1)C(=O)N1CC(Oc2ccc(CC3Nc4cc(C(F)(F)F)c(S(N)(=O)=O)cc4S(=O)(=O)N3)cc2)CC1C(=O)O (configuration not stated) the melting point was 170 to 182 °C.
C=CCc1cc(CNC)ccc1C#CC1(O)CN2CCC1CC2 (configuration not stated) showed a melting point of 80 °C.
For Cc1cc([N+](=O)[O-])c(C)cc1SCc1cccc(C(F)(F)F)c1, the melting point was 85 to 87 °C.
